In paper PMC9033836, “Determination of key residues in MRGPRX2 to enhance pseudo-allergic reactions induced by fluoroquinolones” (Scientific Reports, 2022):
Substitutions are numbered along the chain they refer to.

Assays:
Experiment in all cases: intracellular calcium mobilisation (FLIPR Tetra), transiently transfected HEK293
Format in all cases: cell-based
dog MRGPRX2 [1] = biological target: T1, dog MRGPRX2 (Canis lupus, UniProt A0A4Y5P885); conditions: read-out: EC50 (μg/mL) ± SD (P value) / Dog / Wild type (converted)
T1 construct: gene in pcDNA3.1(+), transiently transfected HEK293 cells (JCRB)
T1 sequence (A0A4Y5P885 1-417): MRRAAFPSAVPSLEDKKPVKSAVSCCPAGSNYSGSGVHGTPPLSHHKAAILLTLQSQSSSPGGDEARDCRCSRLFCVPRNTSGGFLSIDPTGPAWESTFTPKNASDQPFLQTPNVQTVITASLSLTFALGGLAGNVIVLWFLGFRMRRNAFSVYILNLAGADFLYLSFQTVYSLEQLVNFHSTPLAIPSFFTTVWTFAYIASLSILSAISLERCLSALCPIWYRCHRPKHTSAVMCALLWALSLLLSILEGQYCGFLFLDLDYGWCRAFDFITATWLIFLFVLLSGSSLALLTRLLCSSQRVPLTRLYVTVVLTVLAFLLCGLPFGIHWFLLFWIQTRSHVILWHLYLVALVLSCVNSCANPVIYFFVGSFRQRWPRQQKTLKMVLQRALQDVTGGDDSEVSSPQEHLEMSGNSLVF
Excerpt: intracellular calcium mobilisation (FLIPR Tetra), transiently transfected HEK293 on dog MRGPRX2

human MRGPRX2 [2] = biological target: T2, human MRGPRX2 (Homo sapiens, UniProt Q96LB1); conditions: read-out: EC50 (μg/mL) ± SD (P value) / Human / Wild type (converted)
T2 construct: full-length gene in pcDNA3.1(+), transiently transfected HEK293 cells (JCRB)
T2 sequence (Q96LB1 1-330): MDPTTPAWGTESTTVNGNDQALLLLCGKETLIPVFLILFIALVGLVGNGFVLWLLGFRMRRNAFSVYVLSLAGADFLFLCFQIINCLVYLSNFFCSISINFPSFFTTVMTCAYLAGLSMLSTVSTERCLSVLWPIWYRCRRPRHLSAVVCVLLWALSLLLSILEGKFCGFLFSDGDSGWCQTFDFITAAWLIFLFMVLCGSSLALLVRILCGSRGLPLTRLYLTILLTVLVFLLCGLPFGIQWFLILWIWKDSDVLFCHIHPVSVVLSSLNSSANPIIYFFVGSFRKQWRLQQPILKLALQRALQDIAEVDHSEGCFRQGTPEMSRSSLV
Excerpt: (§1) intracellular calcium mobilisation (FLIPR Tetra), transiently transfected HEK293 on human MRGPRX2

human MRGPRX2 [3] = biological target: T3, human MRGPRX2 (Homo sapiens, UniProt Q96LB1, F78Y); conditions: read-out: EC50 (μg/mL) ± SD (P value) / Human / F78Y (converted)
T3 construct: full-length gene in pcDNA3.1(+), transiently transfected HEK293 cells (JCRB)
T3 sequence (Q96LB1 1-330 F78Y): T2 sequence (Q96LB1 1-330) with F78Y
Excerpt: as §1

human MRGPRX2 [4] = biological target: T4, human MRGPRX2 (Homo sapiens, UniProt Q96LB1, M109W); conditions: read-out: EC50 (μg/mL) ± SD (P value) / Human / M109W (converted)
T4 construct: full-length gene in pcDNA3.1(+), transiently transfected HEK293 cells (JCRB)
T4 sequence (Q96LB1 1-330 M109W): T2 sequence (Q96LB1 1-330) with M109W
Excerpt: as §1

human MRGPRX2 [5] = biological target: T5, human MRGPRX2 (Homo sapiens, UniProt Q96LB1, F78Y/M109W); conditions: read-out: EC50 (μg/mL) ± SD (P value) / Human / F78Y/M109W (converted)
T5 construct: full-length gene in pcDNA3.1(+), transiently transfected HEK293 cells (JCRB)
T5 sequence (Q96LB1 1-330 F78Y/M109W): T2 sequence (Q96LB1 1-330) with F78Y, M109W
Excerpt: as §1

human MRGPRX2 [6] = biological target: T2, human MRGPRX2; conditions: highest concentration of fluoroquinolones 1000 µg/mL; HBSS pH 7.4, 20 mM HEPES, 0.05% BSA
dog MRGPRX2 [7] = biological target: T1, dog MRGPRX2; conditions: highest concentration of fluoroquinolones 1000 µg/mL; HBSS pH 7.4, 20 mM HEPES, 0.05% BSA

Structure (SMILES)	EC50 (dog MRGPRX2 [1])	EC50 (human MRGPRX2 [2])	EC50 (human MRGPRX2 [3])	EC50 (human MRGPRX2 [4])	EC50 (human MRGPRX2 [5])	intracellular calcium mobilisation (FLIPR Tetra), transiently transfected HEK293 (human MRGPRX2 [6])	intracellular calcium mobilisation (FLIPR Tetra), transiently transfected HEK293 (dog MRGPRX2 [7])
O=C(O)c1cn(C2CC2)c2cc(N3CCNCC3)c(F)cc2c1=O [CPFX]	36.2 µM						
COc1c(N2CCNC(C)C2)c(F)cc2c(=O)c(C(=O)O)cn(C3CC3)c12 (stereo not shown) [GFLX]	258 µM	959 µM	666 µM	266 µM	197 µM		
C[C@H]1COc2c(N3CCN(C)CC3)c(F)cc3c(=O)c(C(=O)O)cn1c23 [LVFX]	249 µM	1800 µM	1380 µM	581 µM	498 µM		
C[C@H]1COc2c(C3(N)CC3)c(F)cc3c(=O)c(C(=O)O)cn1c23 [PZFX]						PZFX ... did not induce intracellular calcium mobilisation in any of the cells	PZFX ... did not induce intracellular calcium mobilisation in any of the cells
